# Target: human GLP1R (Homo sapiens (Human), UniProt P43220)
# Experiment: In vitro cAMP signal activation in human GLP1R stably-expressing cell line (hGLP1R-HEK293)
# Type: cell-based
# Settings: cAMP concentration in hGLP1R-HEK293; 100% = 1 nM human GLP-1 (7-37)
# Experimental: <Test Example 1> Measurement of In Vitro cAMP Signal Activation of a Compound in Human GLP1R
# A human GLP1R stably-expressing cell line (hGLP1R-HEK293) was used in the experiment. The cells were cultured in a Dulbecco's modified Eagle's medium (DMEM) containing 10% fetal bovine serum (Sigma-Aldrich), 100 units/mL penicillin G and 100 μg/mL streptomycin sulfate (Gibco), and 500 μg/mL Geneticin (Gibco), under a moist atmosphere containing 5% CO2, at 37° C.
# hGLP1R-HEK293 was seeded in 96 well plates at 2.0×10^4 cells per well and cultured over night. The medium for culturing the cells was changed to 50 μL of Medium A (DMEM, 20 mM HEPES, 0.05% BSA, 0.5 mM 3-isobutyl-1-methylxanthine) the next day, and the cells were incubated at 37° C. for 30 min. Then, 50 μL of Medium B (DMEM, 20 mM HEPES, 0.05% BSA, 0.5 mM 3-isobutyl-1-methylxanthine) containing GLP-1 or the compound was added, and the cells were incubated at 37° C. for an additional 30 min. Then, 100 μL of Assay lysis buffer (Applied Bioscience) was added, and the cells were incubated at 37° C. for 30 min. The cAMP concentration was quantified using cAMP HiRange kit (Cisbio Bioassays).
# By setting the cAMP concentration when the human GLP-1 (7-37) was put into action at a concentration of 1 nM to 100%, the cAMP concentration of each well was converted to a reaction rate (%).
# human GLP1R, sequence (P43220 24-463): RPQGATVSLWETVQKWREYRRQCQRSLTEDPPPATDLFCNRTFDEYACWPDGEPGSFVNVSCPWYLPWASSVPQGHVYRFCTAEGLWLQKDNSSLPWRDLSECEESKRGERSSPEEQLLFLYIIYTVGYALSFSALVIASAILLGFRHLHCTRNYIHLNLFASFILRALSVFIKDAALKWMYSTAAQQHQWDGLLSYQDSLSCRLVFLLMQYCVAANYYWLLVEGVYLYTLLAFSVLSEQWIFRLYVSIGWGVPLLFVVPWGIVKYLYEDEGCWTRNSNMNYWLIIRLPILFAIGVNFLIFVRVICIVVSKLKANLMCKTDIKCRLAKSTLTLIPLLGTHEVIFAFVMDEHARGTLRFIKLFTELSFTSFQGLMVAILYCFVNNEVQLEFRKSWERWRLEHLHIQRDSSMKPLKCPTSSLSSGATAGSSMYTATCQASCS
row,EC50 [nM],SMILES
1,2.3,"Cc1cc(-n2nc3c(c2-n2ccn(-c4ccc5c(cnn5[C@H]5CCOC5)c4)c2=O)[C@H](C)N(C(=O)c2cc4cc(-c5ccnc(C)c5F)ccc4n2[C@@]2(c4noc(=O)[nH]4)C[C@@H]2C)CC3)cc(C)c1F [Example 14, 3-[(1S,2S)-1-[2-[(4S)-2-(4-fluoro-3,5-dimethylphenyl)-4-methyl-3-[2-oxo-3-[1-[(3S)-oxolan-3-yl]indazol-5-yl]imidazol-1-yl]-6,7-dihydro-4H-pyrazolo[4,3-c]pyridine-5-carbonyl]-5-(3-fluoro-2-methylpyridin-4-yl)indol-1-yl]-2-methylcyclopropyl]-4H-1,2,4-oxadiazol-5-one]"
2,2.2,"Cc1cc(-n2nc3c(c2-n2ccn(-c4ccc5c(cnn5C)c4)c2=O)[C@H](C)N(C(=O)c2cc4cc(-c5ccnc(N(C)C)c5C)ccc4n2[C@@]2(c4noc(=O)[nH]4)C[C@@H]2C)CC3)cc(C)c1F [Example 15, 3-[(1S,2S)-1-[5-[2-(dimethylamino)-3-methylpyridin-4-yl]-2-[(4S)-2-(4-fluoro-3,5-dimethylphenyl)-4-methyl-3-[3-(1-methylindazol-5-yl)-2-oxoimidazol-1-yl]-6,7-dihydro-4H-pyrazolo[4,3-c]pyridine-5-carbonyl]indol-1-yl]-2-methylcyclopropyl]-4H-1,2,4-oxadiazol-5-one]"
3,0.51,"COCCn1ncc2cc(-n3ccn(-c4c5c(nn4-c4cc(C)c(F)c(C)c4)CCN(C(=O)c4cc6cc(C7CCOCC7)ccc6n4[C@@]4(c6noc(=O)[nH]6)C[C@@H]4C)[C@H]5C)c3=O)ccc21 [Example 16, 3-[(1S,2S)-1-[2-[(4S)-2-(4-fluoro-3,5-dimethylphenyl)-3-[3-[1-(2-methoxyethyl)indazol-5-yl]-2-oxoimidazol-1-yl]-4-methyl-6,7-dihydro-4H-pyrazolo[4,3-c]pyridine-5-carbonyl]-5-(oxan-4-yl)indol-1-yl]-2-methylcyclopropyl]-4H-1,2,4-oxadiazol-5-one]"
4,1,"Cc1cc(-n2nc3c(c2-n2ccn(-c4ccc5c(cnn5CC5(C)COC5)c4)c2=O)[C@H](C)N(C(=O)c2cc4cc(C5CCOCC5)ccc4n2[C@@]2(c4noc(=O)[nH]4)C[C@@H]2C)CC3)cc(C)c1F [Example 17, 3-[(1S,2S)-1-[2-[(4S)-2-(4-fluoro-3,5-dimethylphenyl)-4-methyl-3-[3-[1-[(3-methyloxetan-3-yl)methyl]indazol-5-yl]-2-oxoimidazol-1-yl]-6,7-dihydro-4H-pyrazolo[4,3-c]pyridine-5-carbonyl]-5-(oxan-4-yl)indol-1-yl]-2-methylcyclopropyl]-4H-1,2,4-oxadiazol-5-one]"
5,1.3,"Cc1cc(-n2nc3c(c2-n2ccn(-c4ccc5c(C)nsc5c4)c2=O)[C@H](C)N(C(=O)c2cc4cc(C5CCOCC5)ccc4n2[C@@]2(c4noc(=O)[nH]4)C[C@@H]2C)CC3)cc(C)c1F [Example 18, 3-[(1S,2S)-1-[2-[(4S)-2-(4-fluoro-3,5-dimethylphenyl)-4-methyl-3-[3-(3-methyl-1,2-benzothiazol-6-yl)-2-oxoimidazol-1-yl]-6,7-dihydro-4H-pyrazolo[4,3-c]pyridine-5-carbonyl]-5-(oxan-4-yl)indol-1-yl]-2-methylcyclopropyl]-4H-1,2,4-oxadiazol-5-one]"
6,1.3,"Cc1cc(-n2ccn(-c3c4c(nn3-c3cc(C)c(F)c(C)c3)CCN(C(=O)c3cc5cc(C6CCOCC6)ccc5n3[C@@]3(c5noc(=O)[nH]5)C[C@@H]3C)[C@H]4C)c2=O)ccc1OCCO [Example 19, 3-[(1S,2S)-1-[2-[(4S)-2-(4-fluoro-3,5-dimethylphenyl)-3-[3-[4-(2-hydroxyethoxy)-3-methylphenyl]-2-oxoimidazol-1-yl]-4-methyl-6,7-dihydro-4H-pyrazolo[4,3-c]pyridine-5-carbonyl]-5-(oxan-4-yl)indol-1-yl]-2-methylcyclopropyl]-4H-1,2,4-oxadiazol-5-one]"
7,1.9,"COc1cc(-n2ccn(-c3c4c(nn3-c3cc(C)c(F)c(C)c3)CCN(C(=O)c3cc5cc(C6CCOCC6)ccc5n3[C@@]3(c5noc(=O)[nH]5)C[C@@H]3C)[C@H]4C)c2=O)ccc1OC(C)(C)CO [Example 20, 3-[(1S,2S)-1-[2-[(4S)-2-(4-fluoro-3,5-dimethylphenyl)-3-[3-[4-(1-hydroxy-2-methylpropan-2-yl)oxy-3-methoxyphenyl]-2-oxoimidazol-1-yl]-4-methyl-6,7-dihydro-4H-pyrazolo[4,3-c]pyridine-5-carbonyl]-5-(oxan-4-yl)indol-1-yl]-2-methylcyclopropyl]-4H-1,2,4-oxadiazol-5-one]"
8,2.3,"Cc1cc(-n2nc3c(c2-n2ccn(-c4ccc5c(cnn5[C@H]5CCOC5)c4)c2=O)[C@H](C)N(C(=O)c2cc4cc(C5CCOCC5)ccc4n2[C@@]2(c4noc(=O)[nH]4)C[C@@H]2C)CC3)cc(C)c1F [Example 22, 3-[(1S,2S)-1-[2-[(4S)-2-(4-fluoro-3,5-dimethylphenyl)-4-methyl-3-[2-oxo-3-[1-[(3S)-oxolan-3-yl]indazol-5-yl]imidazol-1-yl]-6,7-dihydro-4H-pyrazolo[4,3-c]pyridine-5-carbonyl]-5-(oxan-4-yl)indol-1-yl]-2-methylcyclopropyl]-4H-1,2,4-oxadiazol-5-one]"
9,1.8,"Cc1cc(-n2nc3c(c2-n2ccn(-c4ccc5c(cnn5C)c4F)c2=O)[C@H](C)N(C(=O)c2cc4cc(C5CCOCC5)ccc4n2[C@@]2(c4noc(=O)[nH]4)C[C@@H]2C)CC3)cc(C)c1F [Example 23, 3-[(1S,2S)-1-[2-[(4S)-2-(4-fluoro-3,5-dimethylphenyl)-3-[3-(4-fluoro-1-methylindazol-5-yl)-2-oxoimidazol-1-yl]-4-methyl-6,7-dihydro-4H-pyrazolo[4,3-c]pyridine-5-carbonyl]-5-(oxan-4-yl)indol-1-yl]-2-methylcyclopropyl]-4H-1,2,4-oxadiazol-5-one]"
10,2.5,"Cc1cc(-n2nc3c(c2-n2ccn(-c4ccc5c(c4)CCOC5(C)C)c2=O)[C@H](C)N(C(=O)c2cc4cc(C5CCOCC5)ccc4n2[C@@]2(c4noc(=O)[nH]4)C[C@@H]2C)CC3)cc(C)c1F [Example 24, 3-[(1S,2S)-1-[2-[(4S)-3-[3-(1,1-dimethyl-3,4-dihydroisochromen-6-yl)-2-oxoimidazol-1-yl]-2-(4-fluoro-3,5-dimethylphenyl)-4-methyl-6,7-dihydro-4H-pyrazolo[4,3-c]pyridine-5-carbonyl]-5-(oxan-4-yl)indol-1-yl]-2-methylcyclopropyl]-4H-1,2,4-oxadiazol-5-one]"
11,4,"Cc1cc(-n2ccn(-c3c4c(nn3-c3cc(C)c(F)c(C)c3)CCN(C(=O)c3cc5cc(C6CCOCC6)ccc5n3[C@@]3(c5noc(=O)[nH]5)C[C@@H]3C)[C@H]4C)c2=O)ccc1-c1cc(N(C)C)ncn1 [Example 25, 3-[(1S,2S)-1-[2-[(4S)-3-[3-[4-[6-(dimethylamino)pyrimidin-4-yl]-3-methylphenyl]-2-oxoimidazol-1-yl]-2-(4-fluoro-3,5-dimethylphenyl)-4-methyl-6,7-dihydro-4H-pyrazolo[4,3-c]pyridine-5-carbonyl]-5-(oxan-4-yl)indol-1-yl]-2-methylcyclopropyl]-4H-1,2,4-oxadiazol-5-one]"
12,0.77,"Cc1cc(-n2nc3c(c2-n2ccn(-c4ccc5c(cnn5CCF)c4)c2=O)[C@H](C)N(C(=O)c2cc4cc(C5CCOCC5)ccc4n2[C@@]2(c4noc(=O)[nH]4)C[C@@H]2C)CC3)cc(C)c1F [Example 26, 3-[(1S,2S)-1-[2-[(4S)-2-(4-fluoro-3,5-dimethylphenyl)-3-[3-[1-(2-fluoroethyl)indazol-5-yl]-2-oxoimidazol-1-yl]-4-methyl-6,7-dihydro-4H-pyrazolo[4,3-c]pyridine-5-carbonyl]-5-(oxan-4-yl)indol-1-yl]-2-methylcyclopropyl]-4H-1,2,4-oxadiazol-5-one]"
13,2.3,"Cc1cc(-n2nc3c(c2-n2ccn(-c4cc5cnn(C)c5cc4F)c2=O)[C@H](C)N(C(=O)c2cc4cc(C5CCOCC5)ccc4n2[C@@]2(c4noc(=O)[nH]4)C[C@@H]2C)CC3)cc(C)c1F [Example 27, 3-[(1S,2S)-1-[2-[(4S)-2-(4-fluoro-3,5-dimethylphenyl)-3-[3-(6-fluoro-1-methylindazol-5-yl)-2-oxoimidazol-1-yl]-4-methyl-6,7-dihydro-4H-pyrazolo[4,3-c]pyridine-5-carbonyl]-5-(oxan-4-yl)indol-1-yl]-2-methylcyclopropyl]-4H-1,2,4-oxadiazol-5-one]"
14,1.9,"Cc1cc(-n2nc3c(c2-n2ccn(-c4ccc5c(cnn5CC(F)(F)F)c4F)c2=O)[C@H](C)N(C(=O)c2cc4cc(C5CCOCC5)ccc4n2[C@@]2(c4noc(=O)[nH]4)C[C@@H]2C)CC3)cc(C)c1F [Example 28, 3-[(1S,2S)-1-[2-[(4S)-2-(4-fluoro-3,5-dimethylphenyl)-3-[3-[4-fluoro-1-(2,2,2-trifluoroethyl)indazol-5-yl]-2-oxoimidazol-1-yl]-4-methyl-6,7-dihydro-4H-pyrazolo[4,3-c]pyridine-5-carbonyl]-5-(oxan-4-yl)indol-1-yl]-2-methylcyclopropyl]-4H-1,2,4-oxadiazol-5-one]"

# — patent publication US10858356B2, “Pyrazolopyridine derivative having GLP-1 receptor agonist effect” (Chugai Seiyaku Kabushiki Kaisha, priority 2016, dated 2020)
